These results are taken from patent US12227500B2, “Substituted pyrrolo[2,3-b]pyridines for suppressing toxic endoplasmic reticulum stress” (THE TRUSTEES OF COLUMBIA UNIVERSITY IN THE CITY OF NEW YORK, priority 2018, dated 2025).

pEC50: −log10 of the molar value. Read-outs that look alike come from different tables or passages of the source.

The target in one experiment is HGK/MAP4K4 (Homo sapiens, UniProt O95819). Nature of the experiment: Radiolabeled ATP kinase assay (Reaction Biology Corp.), HGK. Format: biochemical. Also on record: purchased Reaction Biology Corp. To be noted: 10 μM ATP, read-out: % Enzyme Activity (relative to DMSO controls), HGK/MAP4K4, Data 1. Here is the method: (§1) Meanwhile, the same analogs were analyzed in a radiolabeled ATP assay (10 μM ATP; Reaction Biology Corp.) to compare the extent to which they could inhibit the activity of HGK, MLK1, or MLK3 in a cell-free environment (Table S3 and S4).

The target in a further experiment is T1, MLK3/MAP3K11 (Homo sapiens, UniProt Q16584).
T1 construct: purchased Reaction Biology Corp
Briefly: Radiolabeled ATP kinase assay (Reaction Biology Corp.), MLK3. Format: biochemical. Particulars: [Cmpd] 0.1 μM; 10 μM ATP. As to the method: as §1

The target of experiment [1] is T2, panel of 60 human kinases (Homo sapiens, UniProt Q9HAZ1).
T2 construct: purchased Reaction Biology Corp
Nature of the experiment: Radiolabeled ATP kinase assay, panel of 60 kinases (Table S5). Particulars: CLK4; 0.1 μM; 10 μM ATP; read-out: % Enzyme Activity (relative to DSMO controls). Type of experiment: biochemical. Here is the method: (§2) To better understand the biologically relevant targets of compound 1 and its analogs, a second round of cell-free kinase assays was performed. In this expanded assay, we selected ten analogs ranging from moderately to very strongly protective in the CPA assay. These analogs were evaluated for their ability to inhibit a selection of 60 kinases at 0.1 μM and 0.5 μM. […] RNAseq data were used to confirm the expression of each kinase in ES MNs (see Example 12).
(§3) RNAseq data were used to confirm the expression of each kinase in ES motor neurons (see Example 12).

The target in experiment [2] is T3, panel of 60 human kinases (Homo sapiens, UniProt O15264).
T3 construct: purchased Reaction Biology Corp
T3 sequence (O15264 1-365): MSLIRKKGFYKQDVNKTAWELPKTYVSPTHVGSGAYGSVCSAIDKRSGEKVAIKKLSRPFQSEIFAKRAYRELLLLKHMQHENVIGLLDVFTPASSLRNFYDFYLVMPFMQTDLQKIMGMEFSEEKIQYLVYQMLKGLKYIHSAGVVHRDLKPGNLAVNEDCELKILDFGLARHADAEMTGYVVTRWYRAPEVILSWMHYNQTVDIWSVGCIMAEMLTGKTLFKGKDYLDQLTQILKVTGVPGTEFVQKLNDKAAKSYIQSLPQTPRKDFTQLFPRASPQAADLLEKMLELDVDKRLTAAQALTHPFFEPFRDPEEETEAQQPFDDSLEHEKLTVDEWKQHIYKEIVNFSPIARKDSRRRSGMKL
Described as above. Type of experiment: biochemical. Particulars: P38d/MAPK13; 0.1 μM; 10 μM ATP; read-out: % Enzyme Activity (relative to DSMO controls). As to the method:
as §2, §3

In experiment [3] the target is T4, panel of 60 human kinases (Homo sapiens, UniProt P21802).
T4 construct: purchased Reaction Biology Corp
The description is as above. Format: biochemical. Particulars: FGFR2; 0.1 μM; 10 μM ATP; read-out: % Enzyme Activity (relative to DSMO controls). Here is the method:
as §2, §3

Experiment [4] addresses T5, panel of 60 human kinases (Homo sapiens, UniProt Q92918).
T5 construct: purchased Reaction Biology Corp
The description is as above. Type of experiment: biochemical. To be noted: HPK1/MAP4K1; 0.1 μM; 10 μM ATP; read-out: % Enzyme Activity (relative to DSMO controls). As to the method: as §2, §3

Experiment [5] deals with T6, panel of 60 human kinases (Homo sapiens, UniProt Q00534).
T6 construct: purchased Reaction Biology Corp
The description is as above. Particulars: 0.1 μM, 10 μM ATP, read-out: % Enzyme Activity (relative to DSMO controls). Format: biochemical. Here is the method: as §2, §3

Experiment [6] has as its target T7, panel of 60 human kinases (Homo sapiens, UniProt P49759).
T7 construct: purchased Reaction Biology Corp
The description is as above. Type of experiment: biochemical. To be noted: CLK1; 0.1 μM; 10 μM ATP; read-out: % Enzyme Activity (relative to DSMO controls). As to the method: as §2, §3

Experiment [7] deals with T8, panel of 60 human kinases (Homo sapiens, UniProt Q9UM73).
T8 construct: purchased Reaction Biology Corp
Described as above. To be noted: ALK; 0.1 μM; 10 μM ATP; read-out: % Enzyme Activity (relative to DSMO controls). Type of experiment: biochemical. Here is the method:
as §2, §3

Experiment [8] has as its target T9, panel of 60 human kinases (Homo sapiens, UniProt Q13164).
T9 construct: purchased Reaction Biology Corp
Described as above. Format: biochemical. To be noted: 0.1 μM, 10 μM ATP, read-out: % Enzyme Activity (relative to DSMO controls). As to the method: as §2, §3

Experiment [9] concerns the target T10, panel of 60 human kinases (Homo sapiens, UniProt O60285).
T10 construct: purchased Reaction Biology Corp
T10 sequence (O60285 1-661): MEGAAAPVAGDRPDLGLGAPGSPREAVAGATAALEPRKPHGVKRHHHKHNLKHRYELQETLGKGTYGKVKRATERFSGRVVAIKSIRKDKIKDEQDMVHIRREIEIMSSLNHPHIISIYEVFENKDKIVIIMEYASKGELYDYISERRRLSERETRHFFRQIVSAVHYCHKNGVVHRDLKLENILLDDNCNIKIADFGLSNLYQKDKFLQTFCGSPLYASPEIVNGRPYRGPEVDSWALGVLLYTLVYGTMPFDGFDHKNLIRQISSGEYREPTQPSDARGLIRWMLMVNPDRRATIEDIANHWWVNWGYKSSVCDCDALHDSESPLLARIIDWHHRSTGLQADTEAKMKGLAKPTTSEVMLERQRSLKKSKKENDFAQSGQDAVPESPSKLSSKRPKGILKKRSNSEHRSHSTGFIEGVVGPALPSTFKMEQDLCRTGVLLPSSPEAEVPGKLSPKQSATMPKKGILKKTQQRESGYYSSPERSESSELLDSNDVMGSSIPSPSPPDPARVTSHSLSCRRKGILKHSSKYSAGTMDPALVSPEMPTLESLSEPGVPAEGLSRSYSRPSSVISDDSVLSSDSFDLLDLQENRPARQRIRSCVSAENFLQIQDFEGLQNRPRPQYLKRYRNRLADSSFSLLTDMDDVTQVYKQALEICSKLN
The experiment is described as above. Format: biochemical. Particulars: ARK5/NUAK1; 0.1 μM; 10 μM ATP; read-out: % Enzyme Activity (relative to DSMO controls). As to the method: as §2, §3

The target of another experiment is T11, MLK1/MAP3K9 (Homo sapiens, UniProt P80192).
T11 construct: purchased Reaction Biology Corp
Nature of the experiment: Radiolabeled ATP kinase assay (Reaction Biology Corp.), MLK1. Type of experiment: biochemical. To be noted: [Cmpd] 0.1 μM, 10 μM ATP. As to the method: as §1

Experiment [10] concerns human ES motor neurons carrying the ALS-causing SOD1^A4V mutation. Briefly: cells. Particulars: Homo sapiens, Neuron, 72 h, 72 h. Format: cell-based. Here is the method:
Next, survival assays were performed with all the analogs at once to generate a low-variability dataset. All compounds were evaluated at concentrations ranging from 0.1-3.0 μM (five-point dilution) in three technical replicates and two biological replicates.

T1 sequence (Q16584 whole entry): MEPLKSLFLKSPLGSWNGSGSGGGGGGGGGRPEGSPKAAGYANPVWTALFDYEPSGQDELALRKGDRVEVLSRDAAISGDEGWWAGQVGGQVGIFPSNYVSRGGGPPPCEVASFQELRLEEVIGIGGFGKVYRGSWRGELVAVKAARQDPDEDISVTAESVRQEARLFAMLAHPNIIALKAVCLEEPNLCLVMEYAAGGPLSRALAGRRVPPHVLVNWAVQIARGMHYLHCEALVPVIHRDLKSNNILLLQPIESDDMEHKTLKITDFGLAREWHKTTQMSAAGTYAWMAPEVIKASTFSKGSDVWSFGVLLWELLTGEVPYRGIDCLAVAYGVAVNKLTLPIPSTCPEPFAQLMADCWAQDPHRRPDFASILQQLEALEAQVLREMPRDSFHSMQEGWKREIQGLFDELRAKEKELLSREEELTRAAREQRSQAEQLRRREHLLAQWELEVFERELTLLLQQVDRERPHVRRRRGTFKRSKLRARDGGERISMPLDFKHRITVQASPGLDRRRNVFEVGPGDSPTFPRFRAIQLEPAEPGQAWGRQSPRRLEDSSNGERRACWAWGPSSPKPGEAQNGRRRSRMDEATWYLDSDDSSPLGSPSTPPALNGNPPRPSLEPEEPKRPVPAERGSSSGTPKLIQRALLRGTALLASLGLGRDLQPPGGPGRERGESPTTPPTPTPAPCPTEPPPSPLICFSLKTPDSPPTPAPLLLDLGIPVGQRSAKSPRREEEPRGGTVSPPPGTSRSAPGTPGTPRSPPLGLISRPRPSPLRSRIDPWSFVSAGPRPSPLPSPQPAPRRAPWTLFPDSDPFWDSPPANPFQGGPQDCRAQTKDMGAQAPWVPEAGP
T11 sequence (P80192 whole entry): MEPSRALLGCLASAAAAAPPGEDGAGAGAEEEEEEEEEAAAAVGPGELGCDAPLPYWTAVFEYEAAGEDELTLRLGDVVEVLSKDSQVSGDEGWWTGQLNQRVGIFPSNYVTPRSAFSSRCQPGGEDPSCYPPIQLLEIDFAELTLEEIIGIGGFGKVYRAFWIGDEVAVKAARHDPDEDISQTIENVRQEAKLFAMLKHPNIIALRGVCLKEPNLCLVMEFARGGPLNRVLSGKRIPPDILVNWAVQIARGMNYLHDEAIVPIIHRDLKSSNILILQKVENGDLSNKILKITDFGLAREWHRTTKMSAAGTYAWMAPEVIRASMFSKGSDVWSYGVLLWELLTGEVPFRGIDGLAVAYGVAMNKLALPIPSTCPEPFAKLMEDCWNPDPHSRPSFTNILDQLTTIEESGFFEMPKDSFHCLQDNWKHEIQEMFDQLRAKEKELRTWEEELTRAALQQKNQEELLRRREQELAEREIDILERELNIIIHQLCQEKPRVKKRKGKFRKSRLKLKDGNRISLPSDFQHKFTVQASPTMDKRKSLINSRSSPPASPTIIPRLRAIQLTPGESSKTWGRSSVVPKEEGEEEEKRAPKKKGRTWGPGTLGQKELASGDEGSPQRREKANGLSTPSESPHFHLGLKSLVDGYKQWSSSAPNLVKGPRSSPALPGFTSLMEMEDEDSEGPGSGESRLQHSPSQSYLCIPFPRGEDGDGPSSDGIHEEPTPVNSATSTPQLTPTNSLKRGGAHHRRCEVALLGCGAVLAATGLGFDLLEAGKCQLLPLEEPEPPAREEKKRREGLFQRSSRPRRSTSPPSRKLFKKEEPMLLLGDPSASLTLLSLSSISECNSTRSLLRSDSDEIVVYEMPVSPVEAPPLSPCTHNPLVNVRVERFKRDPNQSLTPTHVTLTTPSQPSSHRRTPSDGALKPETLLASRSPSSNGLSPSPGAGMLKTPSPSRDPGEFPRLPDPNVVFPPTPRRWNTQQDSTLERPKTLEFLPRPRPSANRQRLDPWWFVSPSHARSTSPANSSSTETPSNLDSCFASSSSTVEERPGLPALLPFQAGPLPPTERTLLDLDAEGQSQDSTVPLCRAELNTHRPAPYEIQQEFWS
T6 sequence (Q00534 whole entry): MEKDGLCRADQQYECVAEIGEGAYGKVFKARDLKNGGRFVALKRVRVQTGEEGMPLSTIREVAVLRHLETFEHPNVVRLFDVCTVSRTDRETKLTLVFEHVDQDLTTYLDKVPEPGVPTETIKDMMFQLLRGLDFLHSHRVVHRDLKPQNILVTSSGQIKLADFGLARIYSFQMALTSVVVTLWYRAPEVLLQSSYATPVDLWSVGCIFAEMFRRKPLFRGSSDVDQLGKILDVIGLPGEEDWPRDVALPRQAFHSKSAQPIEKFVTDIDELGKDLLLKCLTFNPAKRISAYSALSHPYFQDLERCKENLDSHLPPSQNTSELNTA
HGK/MAP4K4, sequence (O95819 whole entry): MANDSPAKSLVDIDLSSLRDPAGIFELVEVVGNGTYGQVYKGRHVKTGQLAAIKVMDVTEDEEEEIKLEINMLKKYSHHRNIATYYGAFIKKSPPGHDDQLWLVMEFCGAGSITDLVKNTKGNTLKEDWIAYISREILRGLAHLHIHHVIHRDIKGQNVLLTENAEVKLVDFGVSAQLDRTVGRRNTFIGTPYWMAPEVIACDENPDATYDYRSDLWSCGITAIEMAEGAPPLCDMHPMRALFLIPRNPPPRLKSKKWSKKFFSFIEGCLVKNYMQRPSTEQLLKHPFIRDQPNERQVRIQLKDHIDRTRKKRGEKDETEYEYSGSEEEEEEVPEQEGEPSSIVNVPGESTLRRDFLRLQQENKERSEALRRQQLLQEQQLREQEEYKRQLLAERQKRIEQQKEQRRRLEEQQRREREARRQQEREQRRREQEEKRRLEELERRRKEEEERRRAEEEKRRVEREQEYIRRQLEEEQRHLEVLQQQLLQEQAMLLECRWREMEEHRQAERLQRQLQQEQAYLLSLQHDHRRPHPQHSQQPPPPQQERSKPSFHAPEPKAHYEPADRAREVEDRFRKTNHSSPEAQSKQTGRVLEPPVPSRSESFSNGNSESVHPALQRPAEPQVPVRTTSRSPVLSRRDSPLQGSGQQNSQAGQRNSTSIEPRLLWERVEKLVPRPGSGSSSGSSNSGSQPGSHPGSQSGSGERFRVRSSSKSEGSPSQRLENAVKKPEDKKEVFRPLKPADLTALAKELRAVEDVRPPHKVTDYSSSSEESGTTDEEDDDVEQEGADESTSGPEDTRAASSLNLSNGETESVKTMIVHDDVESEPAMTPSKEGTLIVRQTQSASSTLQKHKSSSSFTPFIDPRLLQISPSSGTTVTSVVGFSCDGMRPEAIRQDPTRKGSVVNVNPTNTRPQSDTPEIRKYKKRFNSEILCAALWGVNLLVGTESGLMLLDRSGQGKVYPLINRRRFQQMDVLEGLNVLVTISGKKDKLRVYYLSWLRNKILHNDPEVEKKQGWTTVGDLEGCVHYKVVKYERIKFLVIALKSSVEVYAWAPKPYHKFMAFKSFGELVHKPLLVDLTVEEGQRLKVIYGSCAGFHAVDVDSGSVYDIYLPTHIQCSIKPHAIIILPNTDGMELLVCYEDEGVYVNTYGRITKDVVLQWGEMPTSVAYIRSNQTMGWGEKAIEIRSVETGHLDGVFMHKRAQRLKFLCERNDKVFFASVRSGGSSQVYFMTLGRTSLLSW
T9 sequence (Q13164 whole entry): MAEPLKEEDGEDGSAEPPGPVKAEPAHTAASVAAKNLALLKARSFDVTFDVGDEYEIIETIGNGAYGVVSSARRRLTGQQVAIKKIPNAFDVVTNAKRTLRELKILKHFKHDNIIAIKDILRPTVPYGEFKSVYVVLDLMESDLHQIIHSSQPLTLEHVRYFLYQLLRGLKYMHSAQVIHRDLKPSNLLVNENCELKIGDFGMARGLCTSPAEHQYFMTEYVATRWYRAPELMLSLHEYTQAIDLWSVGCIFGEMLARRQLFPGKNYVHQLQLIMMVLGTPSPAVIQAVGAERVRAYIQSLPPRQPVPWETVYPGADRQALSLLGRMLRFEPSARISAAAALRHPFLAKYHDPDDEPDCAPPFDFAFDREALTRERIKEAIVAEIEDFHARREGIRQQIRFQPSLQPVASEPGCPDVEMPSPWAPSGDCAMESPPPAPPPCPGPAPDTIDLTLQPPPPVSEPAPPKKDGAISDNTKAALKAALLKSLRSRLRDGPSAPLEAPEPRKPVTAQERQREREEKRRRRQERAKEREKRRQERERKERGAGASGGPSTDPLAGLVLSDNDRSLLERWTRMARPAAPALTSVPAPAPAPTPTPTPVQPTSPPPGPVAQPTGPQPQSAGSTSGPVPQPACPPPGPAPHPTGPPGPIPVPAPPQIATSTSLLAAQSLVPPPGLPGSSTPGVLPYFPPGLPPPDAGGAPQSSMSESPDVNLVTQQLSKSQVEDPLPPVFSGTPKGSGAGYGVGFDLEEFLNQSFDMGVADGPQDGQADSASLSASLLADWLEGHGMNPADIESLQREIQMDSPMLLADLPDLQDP
T7 sequence (P49759 whole entry): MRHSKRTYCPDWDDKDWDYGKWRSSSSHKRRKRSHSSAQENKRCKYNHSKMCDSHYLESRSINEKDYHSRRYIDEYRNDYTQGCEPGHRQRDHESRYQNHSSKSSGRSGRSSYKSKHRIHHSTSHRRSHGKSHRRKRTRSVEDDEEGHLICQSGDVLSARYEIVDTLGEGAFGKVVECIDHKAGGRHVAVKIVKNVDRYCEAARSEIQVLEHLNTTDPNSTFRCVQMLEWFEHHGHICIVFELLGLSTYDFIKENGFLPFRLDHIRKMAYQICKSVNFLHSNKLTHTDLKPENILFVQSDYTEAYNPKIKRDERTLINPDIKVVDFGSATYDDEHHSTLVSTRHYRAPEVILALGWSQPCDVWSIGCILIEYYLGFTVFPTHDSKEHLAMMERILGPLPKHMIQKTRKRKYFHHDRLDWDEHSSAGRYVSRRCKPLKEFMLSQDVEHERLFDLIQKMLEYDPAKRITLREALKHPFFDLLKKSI

Turning to `CN1CCN(Cc2ccc(-c3cnc4[nH]cc(-c5ccoc5)c4c3)cc2)CC1` [Compound 7w, 3-(Furan-3-yl)-5-(4-((4-methylpiperazin-1-yl)methyl)phenyl)-1H-pyrrolo[2,3-b]pyridine], the remaining activity at 0.025 µM at HGK/MAP4K4 ([Cmpd] 0.025 μM) came to 29%. Moreover, the remaining activity at 0.1 µM on HGK/MAP4K4 ([Cmpd] 0.1 μM) was determined as 4.46%; in experiment [1] it was 85.5%; in experiment [2], 112%; in [3] it was 77.8%; in experiment [4], 62.4%; in [5] (CDK6/cyclin D1), 58.5%. Further, the remaining activity at 0.1 µM in experiment [5] (CDK6/cyclin D3) was found to be 68.4%; in experiment [6] it was 81.9%; in experiment [7] it was 89.7%; in experiment [8] (ERK5/MAPK7 (CD)), 96.3%; in [8] (ERK5/MAPK7) it was 108%; in experiment [9], 14.8%. Besides, the remaining activity at 0.1 µM amounted to 76% at MLK1/MAP3K9 (read-out: % Enzyme Activity Remaining (relative to DMSO controls), MLK1/MAP3K9, Data 1) and 79.3% at MLK1/MAP3K9 (read-out: % Enzyme Activity Remaining (relative to DMSO controls), MLK1/MAP3K9, Data 2). In addition, at MLK3/MAP3K11, the “% Enzyme Activity Remaining (relative to DMSO controls), MLK3/MAP3K11, Data 1” value is given as 75.10%. At MLK3/MAP3K11, the “% Enzyme Activity Remaining (relative to DMSO controls), MLK3/MAP3K11, Data 2” value was found to be 76.98%. In experiment [10] (CPA 33 μM, read-out: EC50), the pEC50 is 5.86. The viability at 1 µM in experiment [10] (CPA (33 μM) + compound (1 μM), read-out: Motor Neuron Survival, % untreated) was found to be 46.6%. Also, the Emax in experiment [10] (CPA 33 μM, read-out: Emax (MN survival % untreated)) amounted to 0.42%.

The term pEC50 denotes −log10 of the EC50, conventionally taken in molar units.
